# Assay results taken from patent publication US10759843B2, “Method and pharmaceutical composition for use in the treatment of cancer” (priority 2012, dated 2020).
# Non-standard residues stand in square brackets, D forms with d. Residues, ends and D or L forms follow the SMILES beside them.
# Key:
# cancer cell lines = test: PCD induction in cancer cell lines (whole panel of Table 1); assay type: cell-based; conditions: cancer cell lines of Table 1, Annexin V labeling
# Experimental: (§1) We used Annexin V-FITC (BD Biosciences) for the assessment of phosphatidylserine (PS) exposure. Data analysis was carried out in a FACSCanto II (BD Biosciences) on the total cell population (10,000 cells). Data were analyzed using FlowJo software (TreeStar).
# primary cancer cells = test: PCD induction in primary cancer cells (whole panel of Table 2); assay type: cell-based; conditions: primary cancer cells (Table 2)
# [1] = test system: B cells isolated from CLL patients; test: PCD (phosphatidylserine exposure, Annexin-V-FITC, flow cytometry) in B cells from CLL patients; assay type: cell-based, human
# Source text: (§2) After authorized consent forms fresh blood samples will be collected from CLL patients diagnosed according to classical morphological and immunophenotypic criteria at Pitié-Salpêtrière Hospital (Service d'Hématologie Biologique). Normal B lymphocytes will be obtained from EFS (Etablisement Français du Sang). The Institutional Ethics Committee at Pitie-Salpetriere Hospital approved the present study. Mononuclear cells were purified from blood samples using a standard Ficoll-Hypaque gradient, and B cells were positively or negatively selected by magnetic beads coupled to anti-CD19 monoclonal antibody (positive selection) or to anti-CD16, CD3, and CD14 monoclonal antibodies (negative depletion) (Miltenyi Biotech). No changes were found in the cell death response of positively or negatively selected cells. Purified B-lymphocytes were cultured in complete medium (RPMI 1640 medium supplemented with 10% fetal calf serum, 2 mM L-glutamine, and 100 U/ml penicillin-streptomycin). Unless specified, reagents were from Sigma-Aldrich.
# To induce cell death B-lymphocytes were cultured 1 h with the TSP-1 derived peptide 4N1K (300 μM; sequence KRFYVVMWKK, SEQ ID NO:1), the negative control peptide 4NGG (300 μM; sequence KRFYGGMWKK, SEQ ID NO:2), the newly developed peptide PKHB1 (150 μM; sequence (D)K-R-F-Y-[…]-M-W-(D)K) (formula I) or an anti-CD47 mAb (in soluble conditions or in immobilized precoated plates; 5 μg/ml; clone B6H12). Alternatively, B-cells were pre-treated for 30 min before the induction of cell death with the calcium chelator BAPTA-AM (20 μM), the caspase-inhibitor Z-VAD.fmk (50 μM).
# as §1
# normal B-lymphocytes = test: PCD (Annexin-V-FITC) in normal B-lymphocytes; assay type: cell-based, human
# Source text: as §2, with “Sigma-Aldrich. […]” for “Sigma-Aldrich.”
# (§3) We used Annexin V-FITC (BD Biosciences) for the assessment of phosphatidylserine (PS) exposure. […] Data were analyzed using FlowJo software (TreeStar).
# MEC-1 cells = test: Localized CLL xenograft model (MEC-1 cells subcutaneously in NSG mice); assay type: in vivo; conditions: 400 μg intraperitoneally three times per week
# Experimental: 3×10^6 MEC-1 cells were injected subcutaneously into NOD scid gamma (NSG) mice (Charles River). When the tumor volume reached 0.1 cm^3, mice were injected intraperitoneally three times per week with 4NIK or PKHB1 (400 μg in 200 μl PBS). Tumor size was measured every 2-3 days with a calliper and tumor volume, calculated using the formula (length×width^2)/2, was expressed as mm^3. Alternatively, at the end of treatment mice were injected into the sinus retro-orbital with XenoLight RediJect 2-DG-750 Probe (Caliper) to visualize tumor cell glucose uptake, which reflects cell proliferation. Fluorescence was measured by In vivo imaging system FX Pro (Kodak) and pictures were analysed with the Carestream MI software.
# [2] = Peptide stability in human serum, HPLC; assay type: in vitro ADME
# Experimental: FIG. 8: 4N1K and PKHB1 peptides stability were evaluated in human serum at 37° C. for 6 h. The relative concentrations of the remaining soluble peptides were analyzed by HPLC, by the integration of the absorbance at 220 nm as a function of retention time.
# [3] = test system: CD19^+/CD5^− (residual B-cells); test: Cell death in residual B-cells of CLL patients (flow cytometry); assay type: cell-based, human; conditions: n=8 patients (FIG. 6C)
# Experimental: FIG. 6A-D. FIG. 6(A) B cells isolated from CLL patients were left untreated (control) or cultured 1 h in the presence of 4N1K or the 4N1K-derivative peptide PKHB-1 at the indicated concentration. The percentage of cells that expose phosphatidylserine (measured with Annexin-V-FITC) was recorded and expressed as a plot. Data are the means of eight independent experiments. FIG. 6(B) In a similar experiment B-lymphocytes from 14 different CLL patients, including individuals with unmutated IGHV, complex karyotype and dysfunctional TP53, were left untreated (control) or cultured 1 h in the presence of 4N1K (300 μM) or the 4N1K-derivative peptide PKHB-1 (150 μM). PCD was measured by Annexin-V-FITC labelling in a flow cytometer. FIG. 6(C) Cell death was determined as described in A in 4N1K or PKHB1-treated CD19^+/CD5^− (residual B-cells) and CD19^+/CD5^+ B-lymphocytes (CLL cells) identified by flow cytometry from each CLL patient. Data are presented as the mean±s.d. (n=8 patients). FIG. 6(D) Cell death was measured by Annexin V-positive staining in 4N1K or PKHB1-treated CLL cells pre-incubated or not with the intracellular calcium chelator BAPTA-AM. Data are presented as the mean±S.D. (n=10 patients).
# as §3
Molecule,cell death / caspase-independent PCD induction (in words) (cancer cell lines),caspase-independent PCD induction (in words) (primary cancer cells),PCD induction in CLL primary cells (in words) ([1]; soluble peptide or mAb (FIG. 1)),cytotoxicity in normal B-lymphocytes (normal B-lymphocytes),tumor growth compared to control mice (MEC-1 cells; NSG mice with MEC-1 tumors (FIG. 7)),tumor glucose uptake (2-DG) compared to control mice (MEC-1 cells; NSG mice with MEC-1 tumors (FIG. 7C)),"efficiency compared with 4N1K ([1]; B cells isolated from CLL patients, 1 h, indicated concentrations (FIG. 6A))","effect of pre-treatment with calcium chelator BAPTA-AM on peptide-mediated PCD ([1]; BAPTA-AM 20 μM before PCD induction (FIG. 5, FIG. 6D))","cell death of CD19^+/CD5^+ tumor cells ([1]; CD19^+/CD5^+ CLL cells, n=8 patients (FIG. 6C))",time over which stable in human serum ([2]; 37° C. (FIG. 8)) [h],"degradation in human serum ([2]; 37° C., 6 h, HPLC 220 nm (FIG. 8))",cell death of residual CD19^+/CD5^− B-lymphocytes [3]
"KRFYGGMWKK [4NGG, negative soluble control peptide, 4N1K mutated in two amino acids, reference compound]",inefficient,inefficient,unable to induce PCD,,,,,,,,,
"CSCC[C@H](NC(=O)[C@@H](NC(=O)[C@@H](NC(=O)[C@H](Cc1ccc(O)cc1)NC(=O)[C@H](Cc1ccccc1)NC(=O)[C@H](CCCNC(=N)N)NC(=O)[C@@H](N)CCCCN)C(C)C)C(C)C)C(=O)N[C@@H](Cc1c[nH]c2ccccc12)C(=O)N[C@@H](CCCCN)C(=O)N[C@H](CCCCN)C(=O)O [PKHB1, (D)K-R-F-Y-V-V-M-W-K-(D)] (H-KRFYVVMWK[dK]-OH)",,,,not in normal B-lymphocytes,reduction,reduction,better efficiency than the 4N1K peptide,significantly decreased,significantly killed,≥ 6,not degradated,resistant
